Data set [1] has as its target T1, CYP1A2 (Homo sapiens, UniProt P05177).
T1 construct: purchased Promega
T1 sequence (P05177 1-516): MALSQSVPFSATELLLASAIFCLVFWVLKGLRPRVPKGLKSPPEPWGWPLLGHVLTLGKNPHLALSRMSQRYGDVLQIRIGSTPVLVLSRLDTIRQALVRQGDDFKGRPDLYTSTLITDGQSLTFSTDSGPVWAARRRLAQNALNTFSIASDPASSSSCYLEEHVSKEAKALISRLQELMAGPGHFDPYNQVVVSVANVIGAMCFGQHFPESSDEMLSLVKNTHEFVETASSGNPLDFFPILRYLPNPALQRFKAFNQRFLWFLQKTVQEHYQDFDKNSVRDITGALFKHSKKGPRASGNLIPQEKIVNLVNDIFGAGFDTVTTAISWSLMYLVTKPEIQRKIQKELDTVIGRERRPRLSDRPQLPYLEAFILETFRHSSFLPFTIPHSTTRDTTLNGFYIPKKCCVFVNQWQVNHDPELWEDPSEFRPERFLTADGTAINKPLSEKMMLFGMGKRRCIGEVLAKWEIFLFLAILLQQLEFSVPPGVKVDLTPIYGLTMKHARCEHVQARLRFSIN
Nature of the data set: Biochemical assay for CYP enzyme inhibition, P450-Glo CYP1A2 Screening System. It is filed as in vitro ADME. To be noted: estimated from percentage inhibition; read-out: IC50 (μM) CYP1A2. The method, then:
(§1) Test Example 5: Biochemical Assay for CYP Enzyme (Cytochrome P450) Inhibition
P450-Glo™ CYP1A2 Screening System, (Promega);
(§2) BMG PHERAstar FS Luminescent.
(§3) The experiments were carried out separately according to the instructions of the kits. The steps were as follows:
3.1. Inhibition Against CYP1A2:
Test group: The test compounds at different concentrations were added into a microplate, and Luciferin-ME (100 μM), K3PO4 (100 mM), and CYP1A2 (0.01 μmol/μL) were added into each well, and pre-incubated at room temperature for 10 min. Thereafter, an NADPH regeneration system was added. The mixture was reacted at room temperature for 30 min. Finally, an equal volume of detection buffer was added and incubated at room temperature for 20 min, followed by chemiluminescence detection.
(§4) Negative control group: The experimental method for the negative control group was the same as that for the test group, except that the test compound was not added.
Blank control group: The experimental method for the blank control group was the same as that for the test group, except that the test compound was not added and that CYP1A2 was replaced with CYP1A2 Membrance (0.01 μmol/μL).
(§5) Percentage inhibition=(1−(the chemiluminescent signal value of the test compound group at a certain test concentration−the chemiluminescent signal value of the blank control group)/(the chemiluminescent signal value of the negative control group−the chemiluminescent signal value of the blank control group))×100%.
(§6) When the percentage inhibition was between 30% and 80%, a single value or a value range of the half maximal inhibitory concentration (IC50) of the compound against the CYP enzyme was estimated based on the following equation: IC50=X×(1−percentage inhibition)/percentage inhibition, wherein X was the test concentration of the compound.

Data set [2] in a line: Pharmacokinetic (PK) studies in Balb/c mouse. It is filed as in vivo. To be noted: female, Balb/c, mouse, in vivo. The method, then: Test Example 7: Pharmacokinetic (PK) Studies in Balb/c Mouse
The compound of Example 12, Control Compound 1, Control Compound 2, and TNO-155 were administered to female Balb/c mice by intravenous injection (IV) and gavage (PO) respectively to estimate the pharmacokinetic properties. Dosing amounts for IV and PO routes were 1 mg/kg and 10 mg/kg, respectively. The solvent for IV route was 5% DMSO+5% Solutol+90% Saline, and the solvent for PO route was 0.5% MC (sodium methylcellulose). Blood was collected at various time points after IV and PO administration. The blood from the test groups of the compound of Example 12, Control Compound 1, and Control Compound 2 was anticoagulated using EDTA.K2 and preserved at −80° C. The blood from the test groups of TNO-155 was anticoagulated using EDTA.K2 and centrifuged to obtain plasma samples, and the plasma samples were preserved at −80° C.
The blood or plasma samples were subjected to protein precipitation and then to the LC-MS/MS analysis. WinNonlin 6.3 software was used to calculate the pharmacokinetic parameters by non-compartmental model, and the results were listed in Table 7 below.

Data set [3] is described as follows: Pharmacokinetic (PK) studies in beagle dog. In kind it is in vivo. As to conditions: dog, male beagle dogs, plasma. The method, then: Test Example 8: Pharmacokinetic (PK) Studies in Beagle Dog
(§7) The compound of Example 12, Control Compound 1, Control Compound 2, and TNO-155 were administered to male beagle dogs by intravenous injection (IV) and gavage (PO) respectively to estimate the pharmacokinetic properties. Dosing amounts for IV and PO routes were 0.5 mg/kg and 2.5 mg/kg. The solvent for IV route was 5% DMSO+5% Solutol+90% Saline, and the solvent for PO route was 0.5% MC (sodium methylcellulose). Blood was collected at various time points after IV and PO administration. The blood was anticoagulated using EDTA.K2, and centrifuged to obtain plasma samples. The plasma samples were preserved at −80° C.
The plasma samples were subjected to protein precipitation and then to the LC-MS/MS analysis. WinNonlin 6.3 software was used to calculate the pharmacokinetic parameters by non-compartmental model, and the results were listed in Table 8 below.

Data set [4] concerns the target T2, CYP3A4 (Homo sapiens, UniProt P08684).
T2 construct: purchased Promega
In words: Biochemical assay for CYP enzyme inhibition, P450-Glo CYP3A4 Screening System. In kind it is in vitro ADME. As to conditions: estimated from percentage inhibition; read-out: IC50 (μM) CYP3A4. How it is done: as §1
P450-Glo™ CYP3A4 Screening System, (Promega).
as §2, §3
3.3. Inhibition Against CYP3A4:
Test group: The test compounds at different concentrations were added into a microplate, and Luciferin-IPA ([…]), K3PO4 (100 mM), and CYP3A4 (2 nM) were added into each well, and pre-incubated at room temperature for 10 min. Thereafter, an NADPH regeneration system was added. The mixture was reacted at room temperature for 30 min. Finally, an equal volume of detection buffer was added and incubated at room temperature for 20 min, followed by chemiluminescence detection.
as §4
Blank control group: The experimental method for the blank control group was the same as that for the test group, except that the test compound was not added and that CYP3A4 was replaced with CYP3A4 Membrance (2 nM).
as §5, §6

In data set [5] the target is T3, CYP2D6 (Homo sapiens, UniProt P10635).
T3 construct: purchased Promega
Nature of the data set: Biochemical assay for CYP enzyme inhibition, P450-Glo CYP2D6 Screening System. In kind it is in vitro ADME. To be noted: estimated from percentage inhibition; read-out: IC50 (μM) CYP2D6. The method, then: as §1
P450-Glo™ CYP2D6 Screening System, (Promega);
as §2, §3
3.2. Inhibition Against CYP2D6:
Test group: The test compounds at different concentrations were added into a microplate, and Luciferin-ME EGE (3 μM), K3PO4 (100 mM), and CYP2D6 (5 nM) were added into each well, and pre-incubated at room temperature for 10 min. Thereafter, an NADPH regeneration system was added. The mixture was reacted at 37° C. for 30 min. Finally, an equal volume of detection buffer was added and incubated at room temperature for 20 min, followed by chemiluminescence detection.
as §4
Blank control group: The experimental method for the blank control group was the same as that for the test group, except that the test compound was not added and that CYP2D6 was replaced with CYP2D6 Membrance (5 nM).
as §5, §6

Data set [6] is described as follows: Pharmacokinetic (PK) studies in SD rat. In kind it is in vivo. As to conditions: rat, male SD rats, plasma. How it is done: Test Example 6: Pharmacokinetic (PK) Studies in SD Rat
as §7, with “Example 12 and” for “Example 12,”, “Compound 2” for “Compound 1, Control Compound 2, and TNO-155”, “male SD rats” for “male beagle dogs”, “were 1” for “were 0.5”, “and 5 mg/kg, respectively.” for “and 2.5 mg/kg.”, “DMSO+5% Solutol (polyoxyl 15-hydroxystearate)+90% Saline (physiological saline),” for “DMSO+5% Solutol+90% Saline,”
The plasma samples were subjected to protein precipitation and then to the LC-MS/MS analysis. WinNonlin 6.3 software was used to calculate the pharmacokinetic parameters by non-compartmental model, and the results were listed in Table 6 below.

Results on two compounds are retold here after patent US20230212180A1, “SUBSTITUTED PYRAZINE COMPOUND, PHARMACEUTICAL COMPOSITION COMPRISING SAME, AND USE THEREOF” (Sichuan Kelun-Biotech Biopharmaceutical Co., Ltd., priority 2020, published 2023).

Each structure is given as a SMILES string.

T2 sequence (P08684 whole entry): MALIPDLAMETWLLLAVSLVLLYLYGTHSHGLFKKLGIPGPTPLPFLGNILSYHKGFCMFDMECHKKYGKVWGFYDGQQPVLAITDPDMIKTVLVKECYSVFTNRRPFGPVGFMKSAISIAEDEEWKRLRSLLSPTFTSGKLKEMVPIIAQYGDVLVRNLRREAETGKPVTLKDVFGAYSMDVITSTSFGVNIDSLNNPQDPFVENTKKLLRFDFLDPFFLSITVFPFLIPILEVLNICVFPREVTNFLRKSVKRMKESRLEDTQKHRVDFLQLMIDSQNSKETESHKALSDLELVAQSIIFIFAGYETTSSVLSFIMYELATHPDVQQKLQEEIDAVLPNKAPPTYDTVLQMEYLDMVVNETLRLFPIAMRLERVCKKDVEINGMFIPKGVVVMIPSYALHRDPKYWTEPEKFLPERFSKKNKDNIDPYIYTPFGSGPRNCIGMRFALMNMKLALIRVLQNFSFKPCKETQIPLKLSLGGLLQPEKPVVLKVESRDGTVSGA
T3 sequence (P10635 whole entry): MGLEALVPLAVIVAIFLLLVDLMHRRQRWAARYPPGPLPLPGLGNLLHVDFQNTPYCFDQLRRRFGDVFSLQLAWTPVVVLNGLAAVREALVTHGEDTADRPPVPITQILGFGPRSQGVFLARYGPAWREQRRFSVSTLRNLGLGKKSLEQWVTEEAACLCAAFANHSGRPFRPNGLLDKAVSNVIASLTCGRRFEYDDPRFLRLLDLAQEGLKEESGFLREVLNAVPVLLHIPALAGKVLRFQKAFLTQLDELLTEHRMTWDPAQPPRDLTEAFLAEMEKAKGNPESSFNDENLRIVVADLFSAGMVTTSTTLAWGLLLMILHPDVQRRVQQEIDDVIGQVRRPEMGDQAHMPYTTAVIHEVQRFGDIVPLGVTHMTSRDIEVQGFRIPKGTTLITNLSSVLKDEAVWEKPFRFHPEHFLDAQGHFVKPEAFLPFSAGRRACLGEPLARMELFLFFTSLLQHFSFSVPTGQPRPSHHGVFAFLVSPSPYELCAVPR

The term IC50 denotes the concentration that gives 50% inhibition. In general, AUC(0-t) refers to exposure summed from dosing to a finite time, without extrapolation to infinity. A high value points to more exposure. The clearance is the volume of plasma or blood freed of the substance per unit of time. A lower clearance goes with inefficient removal. For orientation: half-life means the time in which the quantity being followed falls by half. A lower half-life goes with rapid decline. As to `C[C@@H]1OCC2(CCN(c3ncc(Sc4ccnc(N5CC(O)C5)c4Cl)nc3CO)CC2)[C@@H]1N` [Control Compound 1], the values for the concentration for half-maximal inhibition (IC50) in data set [1], in data set [4] and in data set [5] were more than 10 µM, more than 10 µM and 6.96 µM, respectively. Moreover, the AUC(0-t) in data set [2] (iv, 1 mg/kg) turned out to be 2200 ng·h/mL; in data set [2] (po, 10 mg/kg), 8690 ng·h/mL; in data set [3] (IV, 0.5 mg/kg), 1220 ng·h/mL; in data set [3] (PO, 2.5 mg/kg), 3910 ng·h/mL. Moreover, the clearance in data set [2] (iv, 1 mg/kg) came to 7.21 mL/min/kg; in data set [3] (IV, 0.5 mg/kg), 7.08 mL/min/kg. For the same compound, the half-life was 277 min in data set [2] (po, 10 mg/kg) and 630 min in data set [3] (PO, 2.5 mg/kg).

A word on the Cmax: it is the peak of the concentration-time curve. Take `Cc1nc(N2CCC3(CC2)CO[C@@H](C)[C@H]3N)c(CO)nc1Sc1ccnc(N)c1Cl` [Control Compound 2]: the AUC(0-t) was 576 ng·h/mL in data set [2] (iv, 1 mg/kg); 3870 ng·h/mL in data set [2] (po, 10 mg/kg); 614 ng·h/mL in data set [3] (IV, 0.5 mg/kg); 2550 ng·h/mL in data set [3] (PO, 2.5 mg/kg); 696 ng·h/mL in data set [6] (IV, 1 mg/kg); 2760 ng·h/mL in data set [6] (PO, 5 mg/kg). Moreover, the clearance in data set [2] (iv, 1 mg/kg) came out at 23.2 mL/min/kg; in data set [3] (IV, 0.5 mg/kg) it was 13.2 mL/min/kg; in data set [6] (IV, 1 mg/kg), 24.6 mL/min/kg. Further, the half-life in data set [2] (po, 10 mg/kg) was 305 min; in data set [3] (PO, 2.5 mg/kg), 738 min. Also, the Cmax in data set [6] (IV, 1 mg/kg) amounted to 215 ng/mL; in data set [6] (PO, 5 mg/kg) it was 363 ng/mL.
